From US4016159A, “Acylamino-cephem-carboxylic acids containing an amidino or guanidino group in the molecule” (Hoechst Aktiengesellschaft, priority 1973, dated 1977)
Converted amounts (≈) assume the structure as drawn.

Experiments:
Assay type in all cases: cell-based
Streptococcus D = experiment: Minimum inhibition concentration (MIC), Table 4; details: Germ: Streptococcus D; for MIC: Streptococcus, read-out: Minimum inhibition concentration (MIC)
Excerpt: (§1) Minimum inhibition concentration (MIC) in γ/ml

[1] = system: Staphylococcus aureus 285; experiment: Minimum inhibition concentration (MIC), Table 1; details: for MIC: Staphylococcus aureus, 285, Germ: Staphylococcus aureus 285, read-out: Minimum inhibition concentration (MIC); for Minimum inhibition concentration (MIC): Germ: Staphylococcus aureus 285
Excerpt: as §1
Germ: Staphylococcus aureus 285

Streptococcus pyogenes A = experiment: Minimum inhibition concentration (MIC), Table 3; details: Germ: Streptococcus pyogenes A; for MIC: read-out: Minimum inhibition concentration MIC
Excerpt: Minimum inhibition concentration MIC in γ/ml
Germ: Streptococcus pyogenes A

[2] = system: Staphylococcus aureus SG 511; experiment: Minimum inhibition concentration (MIC), Table 5; details: for MIC: Staphylococcus aureus, SG511, Germ: Staphylococcus aureus SG 511, read-out: Minimum inhibition concentration (MIC)
Excerpt: as §1
Germ: Staphylococcus aureus SG 511

With Cc1csc(SCC2=C(C(=O)O)N3C(=O)C(NC(=O)Cc4ccc(C5=NCCN5)cc4)C3SC2)n1 (centres unmarked) [Example 10, 3-[(4-methyl-thiazole-2-yl)-thiomethyl]-7-[4-(imidazoline-2-yl)-phenylacetamido]-Δ 3-cephem-4-carboxylic acid] the MIC (Streptococcus D) was 10 to 50 µg/mL (≈ 18.9 to 94.4 µM), the MIC [1] was 0.5 to 1.25 µg/mL (≈ 0.944 to 2.36 µM) and the MIC (Streptococcus pyogenes A) was 0.000391 to 0.0078 µg/mL (≈ 0.000738 to 0.0147 µM).

N=C(N)c1ccc(OCC(=O)NC2C(=O)N3C(C(=O)O)=C(CSC4=NCCS4)CSC23)cc1 (centres unmarked) [Example 30, 3-[(Δ2-thiazolidine-2-yl)-thiomethyl]-7-(4-amidinophenoxyacetamido)-Δ3-cephem-4-carboxylic acid] gave an MIC (Streptococcus D) of 10 to 50 µg/mL (≈ 19.7 to 98.5 µM), an MIC [1] of 0.5 to 1.25 µg/mL (≈ 0.985 to 2.46 µM) and an MIC (Streptococcus pyogenes A) of 0.000391 to 0.0078 µg/mL (≈ 0.00077 to 0.0154 µM).

With CCCc1nnc(SCC2=C(C(=O)O)N3C(=O)C(NC(=O)COc4ccc(C5=NCCN5)cc4)C3SC2)s1 (centres unmarked) [Example 37, 3-[(5-n-propyl-1,3,4-thiadiazole-2-yl)-thiomethyl]-7-[4-(imidazoline-2-yl)-phenoxyacetamido]-Δ 3-cephem-4-carboxylic acid] the MIC (Streptococcus D) was 0.196 to 6.25 µg/mL (≈ 0.341 to 10.9 µM), the MIC [1] was 0.5 to 1.25 µg/mL (≈ 0.87 to 2.18 µM) and the MIC (Streptococcus pyogenes A) was 0.000391 to 0.0078 µg/mL (≈ 0.00068 to 0.0136 µM).

CCCc1nnc(SCC2=C(C(=O)O)N3C(=O)C(NC(=O)COc4ccc(C5=NCCN5)cc4)C3SC2)o1 (centres unmarked) [Example 41, 3-[(5-n-propyl-1,3,4-oxadiazole-2-yl)-thiomethyl]-7-[4-(imidazoline-2-yl)-phenoxyacetamido]-Δ 3-cephem-4-carboxylic acid] gave an MIC (Streptococcus D) of 10 to 50 µg/mL (≈ 17.9 to 89.5 µM), an MIC [1] of 0.5 to 1.25 µg/mL (≈ 0.895 to 2.24 µM) and an MIC (Streptococcus pyogenes A) of 0.000391 to 0.0078 µg/mL (≈ 0.0007 to 0.014 µM).

In the case of Cc1nnc(SCC2=C(C(=O)O)N3C(=O)C(NC(=O)COc4ccc(C(=N)N)cc4)C3SC2)s1 (centres unmarked) [Example 46, 3-[(5-methyl-1,3,4-thiadiazole-2-yl)-thiomethyl]-7-[4-amidinophenoxyacetamido]-Δ 3-cephem-4-carboxylic acid], the “Minimum inhibition concentration (MIC)” value ([2]; Germ: Staphylococcus aureus SG 511) was 0.0196 to 0.0391 µg/mL and the MIC [1] was 0.5 to 1.25 µg/mL (≈ 0.96 to 2.4 µM).

In the case of N=C(N)c1ccc(CC(=O)NC2C(=O)N3C(C(=O)O)=C(CSc4nnc(N)s4)CSC23)cc1 (centres unmarked) [Example 59, 3-[(5-amino-1,3,4-thiadiazole-2-yl)-thiomethyl]-7-(4-amidinophenylacetamido)-Δ 3-cephem-4-carboxlic acid], the MIC (Streptococcus D) was 10 to 50 µg/mL (≈ 19.8 to 98.9 µM), the MIC [1] was 0.5 to 1.25 µg/mL (≈ 0.989 to 2.47 µM) and the MIC (Streptococcus pyogenes A) was 0.000391 to 0.0078 µg/mL (≈ 0.000773 to 0.0154 µM).

With N=C(N)c1ccc(CC(=O)NC2C(=O)N3C(C(=O)O)=C(CSc4nnco4)CSC23)cc1 (centres unmarked) [Example 61, 3-[(1,3,4-oxadiazole-2-yl)-thiomethyl]-7-(4-amidino-phenylacetamido)-Δ 3-cephem-4-carboxylic acid] the MIC (Streptococcus D) was 10 to 50 µg/mL (≈ 21.1 to 105 µM), the MIC [1] was 0.5 to 1.25 µg/mL (≈ 1.05 to 2.63 µM) and the MIC (Streptococcus pyogenes A) was 0.008 to 0.0156 µg/mL (≈ 0.0169 to 0.0329 µM).

With Cc1nnc(SCC2=C(C(=O)O)N3C(=O)C(NC(=O)COc4ccc(C5=NCCN5)cc4)C3SC2)s1 (centres unmarked) [Example 75, 3-[(5-methyl-1,3,4-thiadiazole-2-yl)-thiomethyl]-7-[4-(imidazoline-2-yl)-phenoxyacetamido]-Δ 3-cephem-4-carboxylic acid] the MIC (Streptococcus D) was 10 to 50 µg/mL (≈ 18.3 to 91.5 µM), the MIC [1] was 0.5 to 1.25 µg/mL (≈ 0.915 to 2.29 µM) and the MIC (Streptococcus pyogenes A) was 0.000391 to 0.0078 µg/mL (≈ 0.000715 to 0.0143 µM).

Work on CCCc1nnc(SCC2=C(C(=O)O)N3C(=O)C(NC(=O)Cc4ccc(C5=NCCCN5)cc4)C3SC2)s1 (centres unmarked) [Example 79, 3-[(5-n-propyl-1,3,4-thiadiazole-2-yl)-thiomethyl]-7-[4-(1,4,5,6-tetrahydropyrimide-2-yl)-phenylacetamido]-Δ 3-cephem-4-carboxylic acid] yielded an MIC (Streptococcus D) of 10 to 50 µg/mL (≈ 17.5 to 87.3 µM), an MIC [1] of 0.5 to 1.25 µg/mL (≈ 0.873 to 2.18 µM) and an MIC (Streptococcus pyogenes A) of 0.008 to 0.0156 µg/mL (≈ 0.014 to 0.0272 µM).

CCCCc1nnc(SCC2=C(C(=O)O)N3C(=O)C(NC(=O)Cc4ccc(C5=NCCCN5)cc4)C3SC2)o1 (centres unmarked) [Example 81, 3-[(5-n-butyl-1,3,4-oxadiazole-2-yl)-thiomethyl]-7-[4-(1,4,5,6-tetrahydropyrimide-2-yl)-phenyl-acetamido]-Δ 3-cephem-4-carboxylic acid] was tested, and the MIC (Streptococcus D) was 10 to 50 µg/mL (≈ 17.5 to 87.6 µM), the MIC [1] was 1.6 to 2.5 µg/mL (≈ 2.8 to 4.38 µM) and the MIC (Streptococcus pyogenes A) was 0.008 to 0.0156 µg/mL (≈ 0.014 to 0.0273 µM).

CCCc1nnc(SCC2=C(C(=O)O)N3C(=O)C(NC(=O)Cc4ccc(C5=NCCCN5)cc4)C3SC2)o1 (centres unmarked) [Example 82, 3-[(5-n-propyl-1,3,4-oxadiazole-2-yl)-thiomethyl]-7-[4-(1,4,5,6-tetrahydropyrimide-2-yl)-phenylacetamido-]-Δ 3-cephem-4-carboxylic acid] showed an MIC (Streptococcus D) of 10 to 50 µg/mL (≈ 18 to 89.8 µM), an MIC [1] of 0.5 to 1.25 µg/mL (≈ 0.898 to 2.25 µM) and an MIC (Streptococcus pyogenes A) of 0.008 to 0.0156 µg/mL (≈ 0.0144 to 0.028 µM).

In the case of O=C(Cc1ccc(C2=NCCCN2)cc1)NC1C(=O)N2C(C(=O)O)=C(CSc3nnc(-c4ccccc4)o3)CSC12 (centres unmarked) [Example 83, 3-[(5-phenyl-1,3,4-oxadiazole-2-yl)-thiomethyl]-7-[4-(1,4,5,6-tetrahydropyrimide-2-yl)-phenylacetamido]-Δ 3-cephem-4-carboxylic acid], the MIC (Streptococcus D) was 10 to 50 µg/mL (≈ 16.9 to 84.6 µM), the “Minimum inhibition concentration (MIC)” value [1] was 0.5 to 1.25 µg/mL and the MIC (Streptococcus pyogenes A) was 0.000391 to 0.0078 µg/mL (≈ 0.000662 to 0.0132 µM).

For N=C(N)c1ccc(CC(=O)NC2C(=O)N3C(C(=O)O)=C(CSc4ccc5ccccc5n4)CSC23)cc1 (centres unmarked) [Example 91, 3-quinoline[-2-yl-thiomethyl]-7-[4-amidino-phenyl-acetamido]-Δ 3-cephem-4-carboxylic acid], the MIC [2] was 0.0625 to 0.078 µg/mL (≈ 0.117 to 0.146 µM), the MIC [1] was 0.156 to 0.391 µg/mL (≈ 0.292 to 0.733 µM) and the MIC (Streptococcus pyogenes A) was 0.000391 to 0.0078 µg/mL (≈ 0.000733 to 0.0146 µM).

For CCc1nnc(SCC2=C(C(=O)O)N3C(=O)C(NC(=O)Cc4ccc(C5=NCCCN5)cc4)C3SC2)[nH]1 (centres unmarked) [Example 95, 3-[(5-ethyl-triazole-2-yl)-thiomethyl]-7-[4-(1,4,5,6-tetrahydro-pyrimide-2-yl)-phenylacetamido]-Δ3-cephem-4-carboxylic acid], the “Minimum inhibition concentration (MIC)” value (Streptococcus D) was 10 to 50 µg/mL, the “Minimum inhibition concentration (MIC)” value [1] was 1.6 to 2.5 µg/mL and the “Minimum inhibition concentration (MIC)” value (Streptococcus pyogenes A) was 0.008 to 0.0156 µg/mL.

With Cc1cc(C)nc(SCC2=C(C(=O)O)N3C(=O)C(NC(=O)Cc4ccc(C5=NCCCN5)cc4)C3SC2)n1 (centres unmarked) [Example 98] the MIC (Streptococcus D) was 10 to 50 µg/mL (≈ 18.1 to 90.5 µM), the MIC [1] was 0.5 to 1.25 µg/mL (≈ 0.905 to 2.26 µM) and the MIC (Streptococcus pyogenes A) was 0.000391 to 0.0078 µg/mL (≈ 0.000707 to 0.0141 µM).

For O=C(Cc1ccc(C2=NCCCN2)cc1)NC1C(=O)N2C(C(=O)O)=C(CSC3=NNC(c4ccccc4)=CS3)CSC12 (centres unmarked) [Example 99, 3-[(5-phenyl-4H-1,3,4-thiadiazine-2-yl)-thiomethyl]-7[4-(1,4,5,6-tetrahydropyrimide-2-yl)-phenylacetamido]-Δ3-cephem-4-carboxylic acid], the MIC (Streptococcus D) was 10 to 50 µg/mL (≈ 16.1 to 80.5 µM), the MIC [1] was 0.5 to 1.25 µg/mL (≈ 0.805 to 2.01 µM) and the MIC (Streptococcus pyogenes A) was 0.008 to 0.0156 µg/mL (≈ 0.0129 to 0.0251 µM).

Work on Cc1ccnc(SCC2=C(C(=O)O)N3C(=O)C(NC(=O)Cc4ccc(C5=NCCCN5)cc4)C3SC2)n1 (centres unmarked) [Example 102, 3-[(4-methyl-pyrimide-2-yl)-thiomethyl]-7-[4-(1,4,5,6-tetrahydropyrimide-2-yl)-phenylacetamido]-Δ3-cephem-4-carboxylic acid] yielded an MIC (Streptococcus D) of 10 to 50 µg/mL (≈ 18.6 to 92.8 µM), an MIC [1] of 1.6 to 2.5 µg/mL (≈ 2.97 to 4.64 µM) and an MIC (Streptococcus pyogenes A) of 0.008 to 0.0156 µg/mL (≈ 0.0149 to 0.029 µM).

CCc1csc(SCC2=C(C(=O)O)N3C(=O)C(NC(=O)Cc4ccc(C5=NCCN5)cc4)C3SC2)n1 (centres unmarked) [Example 115, 3-[(4-ethyl-thiazole-2-yl)-thiomethyl]-7-[4-(imidazoline-2-yl)-phenylacetamido]-Δ3-cephem-4-carboxylic acid] was tested, and the MIC (Streptococcus D) was 10 to 50 µg/mL (≈ 18.4 to 92 µM), the MIC [1] was 1.6 to 2.5 µg/mL (≈ 2.94 to 4.6 µM) and the MIC (Streptococcus pyogenes A) was 0.000391 to 0.0078 µg/mL (≈ 0.000719 to 0.0143 µM).

With COc1cc(C(=N)N)ccc1OCC(=O)NC1C(=O)N2C(C(=O)O)=C(CSc3nncs3)CSC12 (centres unmarked) [Example 127] the MIC [2] was 0.0625 to 0.078 µg/mL (≈ 0.116 to 0.145 µM), the MIC [1] was 0.156 to 0.391 µg/mL (≈ 0.291 to 0.729 µM) and the MIC (Streptococcus pyogenes A) was 0.000391 to 0.0078 µg/mL (≈ 0.000729 to 0.0145 µM).

Molecule COc1cc(C(=N)N)ccc1OCC(=O)NC1C(=O)N2C(C(=O)O)=C(CSc3nnc(C)s3)CSC12 (centres unmarked) [Example 128, 3-[(5-methyl-1,3,4-thiadizole-2-yl)-thiomethyl]-7(4-amidino-2-methoxy-phenoxy-acetamido)-Δ3-cephem-4-carboxylic acid] has an MIC [2] of 0.0625 to 0.078 µg/mL (≈ 0.114 to 0.142 µM), an MIC [1] of 0.156 to 0.391 µg/mL (≈ 0.283 to 0.71 µM) and an MIC (Streptococcus pyogenes A) of 0.008 to 0.0156 µg/mL (≈ 0.0145 to 0.0283 µM).
